This note sets out measurements from ChEMBL document CHEMBL3886339, “mGluR4 allosteric potentiators, compositions, and methods of treating neurological dysfunction” (2015).

Broadly, the EC50 is the concentration giving half of the maximal effect. The low end stands for greater potency, the high end for weaker potency.

The assay deals with Metabotropic glutamate receptor 4 (Homo sapiens, UniProt Q14833). The assay is classed as functional, cell-based, HEK293.
Chain of Metabotropic glutamate receptor 4 (Q14833 whole entry): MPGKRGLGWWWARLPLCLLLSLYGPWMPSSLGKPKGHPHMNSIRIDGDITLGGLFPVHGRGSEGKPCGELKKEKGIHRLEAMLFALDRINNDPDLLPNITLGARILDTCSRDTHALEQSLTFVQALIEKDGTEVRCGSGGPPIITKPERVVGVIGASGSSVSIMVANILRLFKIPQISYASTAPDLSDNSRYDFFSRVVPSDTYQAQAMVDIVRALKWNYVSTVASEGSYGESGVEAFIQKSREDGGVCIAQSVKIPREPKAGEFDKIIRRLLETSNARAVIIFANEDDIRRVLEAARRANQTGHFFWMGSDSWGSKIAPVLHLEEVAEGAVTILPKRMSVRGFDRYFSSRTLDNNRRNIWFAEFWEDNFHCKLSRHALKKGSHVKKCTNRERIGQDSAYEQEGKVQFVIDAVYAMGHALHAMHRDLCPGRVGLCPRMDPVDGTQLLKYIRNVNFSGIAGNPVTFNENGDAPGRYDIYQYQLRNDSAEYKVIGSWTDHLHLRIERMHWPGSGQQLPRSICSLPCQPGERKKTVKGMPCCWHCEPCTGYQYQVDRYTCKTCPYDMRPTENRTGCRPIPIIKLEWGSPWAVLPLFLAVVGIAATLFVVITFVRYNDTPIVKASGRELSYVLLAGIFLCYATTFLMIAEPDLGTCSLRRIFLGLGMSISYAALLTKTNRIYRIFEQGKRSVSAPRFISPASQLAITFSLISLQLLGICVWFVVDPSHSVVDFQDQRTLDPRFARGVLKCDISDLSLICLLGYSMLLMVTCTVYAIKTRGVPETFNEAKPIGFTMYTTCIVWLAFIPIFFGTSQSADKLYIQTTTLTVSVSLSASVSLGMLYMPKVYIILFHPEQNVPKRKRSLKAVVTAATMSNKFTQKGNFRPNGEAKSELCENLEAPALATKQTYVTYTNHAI
`Cc1ccc(S(=O)(=O)n2cc(NC(=O)c3ccccn3)cn2)cc1C` displayed an EC50 of 144 nM. That is a sub-micromolar value.

Molecule `O=C(Nc1cnn(S(=O)(=O)c2ccc(C(F)(F)F)cc2)c1)c1ccccn1` showed an EC50 of 266 nM. `O=C(Nc1cnn(S(=O)(=O)c2ccc(F)c(F)c2)c1)c1nccs1` registered a 50% effective concentration (EC50) of 4160 nM. Molecule `Cc1cc(S(=O)(=O)n2cc(NC(=O)c3ccccn3)cn2)ccc1Cl` returned an EC50 of 151 nM. On to `O=C(Nc1cnn(S(=O)(=O)c2cc(F)c(F)c(F)c2)c1)c1ccccn1`, for which the 50% effective concentration (EC50) amounted to 234 nM. The result for `O=C(Nc1cnn(S(=O)(=O)c2cccc(Cl)c2F)c1)c1ccccn1` reads 5240 nM; that for `O=C(Nc1cnn(S(=O)(=O)c2ccc(Cl)c(Cl)c2)c1)c1ccccn1`, 204 nM; that for `O=C(Nc1cnn(S(=O)(=O)c2cc(F)c(F)cc2F)c1)c1ccccn1`, 1770 nM.

In the case of `Cc1cc(F)ccc1S(=O)(=O)n1cc(NC(=O)c2ccccn2)cn1`, the EC50 was 2340 nM. The result for `Cc1cccc(S(=O)(=O)n2cc(NC(=O)c3nccs3)cn2)c1` reads 234 nM; that for `Cc1ccc(S(=O)(=O)n2cc(NC(=O)c3nccs3)cn2)cc1C`, 652 nM; that for `COc1ccc(S(=O)(=O)n2cc(NC(=O)c3ccccn3)cn2)cc1`, 170 nM.

`Cc1ccc(S(=O)(=O)n2cc(NC(=O)c3ccccn3)cn2)c(C)c1` displayed an EC50 of 486 nM. This EC50 lies about 2.9-fold higher than the previous one. The result for `O=C(Nc1cnn(S(=O)(=O)c2cc(F)c(F)cc2Cl)c1)c1ccccn1` reads 1170 nM. `Cc1ccc(S(=O)(=O)n2cc(NC(=O)c3nccs3)cn2)cc1` gave an EC50 of 324 nM.

Regarding `Cc1ccc(S(=O)(=O)n2cc(NC(=O)c3ccccn3)cn2)cc1F`, the concentration for a half-maximal effect (EC50) amounted to 137 nM. Then `COc1ccc(S(=O)(=O)n2cc(NC(=O)c3ccccn3)cn2)cc1Cl`, with 260 nM. `O=C(Nc1cnn(S(=O)(=O)c2ccc(F)c(Cl)c2)c1)c1ccccn1` gave an EC50 of 138 nM. Consider `Cc1ccc(S(=O)(=O)n2cc(NC(=O)c3ccccn3)cn2)cc1`, for which the half-maximal effective concentration (EC50) worked out at 9880 nM.

With `O=C(Nc1cnn(S(=O)(=O)c2ccc(Cl)cc2F)c1)c1ccccn1`, it took 128 nM to reach a half-maximal effect (EC50). Against the preceding molecule, the EC50 is about 77-fold lower.

`O=C(Nc1cnn(S(=O)(=O)c2cc(Cl)ccc2F)c1)c1ccccn1` showed a 50% effective concentration (EC50) of 2250 nM. As for `O=C(Nc1cnn(S(=O)(=O)c2ccc(F)c(F)c2F)c1)c1ccccn1`, a half-maximal response (EC50) required 282 nM. With `O=C(Nc1cnn(S(=O)(=O)c2cc(Cl)ccc2Cl)c1)c1ccccn1`, a half-maximal effect (EC50) was put at 197 nM. The result for `O=C(Nc1cnn(S(=O)(=O)c2ccc(F)cc2F)c1)c1ccccn1` reads 1620 nM. `O=C(Nc1cnn(S(=O)(=O)c2ccc(Cl)c(F)c2)c1)c1ccccn1` had a 50% effective concentration (EC50) of 3910 nM.

Regarding `Cc1cccc(S(=O)(=O)n2cc(NC(=O)c3ccccn3)cn2)c1`, the 50% effective concentration (EC50) was determined as 163 nM. This EC50 is about 24-fold lower than that of the molecule before. In turn, `CCc1ccc(S(=O)(=O)n2cc(NC(=O)c3ccccn3)cn2)cc1` registered an EC50 of 248 nM. `O=C(Nc1cnn(S(=O)(=O)c2ccc(F)c(F)c2)c1)c1ccccn1` yielded a 50% effective concentration (EC50) of 1740 nM. Compared with the last molecule, the EC50 is about 7-fold higher. On to `Cc1cc(S(=O)(=O)n2cc(NC(=O)c3ccccn3)cn2)ccc1F`, for which the EC50 worked out at 124 nM.
